This passage reports IC50 and inhibition results from patent US9018214B2, “Bicyclic heterocycle compounds and their uses in therapy” (Astex Therapeutics Limited, priority 2011, dated 2015).

In experiment [1] the target is BIR3 domain of human cIAP-1 (residues 267-363) (Homo sapiens (Human), UniProt Q13490). As to the kind of experiment: cIAP-1 in vitro competitive displacement binding assay (fluorescence polarization; Probe A AVPIK(5&6FAM)-amide or Probe B AbuRPFK(5&6FAM)-amide). The conditions noted are these: for inhibition at 100 µM: Probe B. A general note: Fluorescence polarisation rises when a labelled molecule tumbles more slowly, as on binding a larger partner.

In experiment [2] the target is BIR3 domain of human XIAP (residues 252-350) (Homo sapiens (Human), UniProt P98170). As to the kind of experiment: XIAP in vitro competitive displacement binding assay (fluorescence polarization). The conditions noted are these: for IC50: read-out: IC50 or PI Xiap: IC50.
Setting [3] is: Probe A AVPIK(5&6FAM)-amide, read-out: IC50 or PI cIAP1: IC50.
Where [4] appears, read: 3 h, Probe A, read-out: IC50 or PI cIAP1: PI.
[5] abbreviates: 1 h, read-out: IC50 or PI Xiap: PI.
The mark [6] stands for this setting: read-out: IC50 or PI cIAP1: IC50.
Where [7] appears, read: Probe B AbuRPFK(5&6FAM)-amide, read-out: IC50 or PI cIAP1: IC50.
Setting [8] is: 3 h, read-out: IC50 or PI cIAP1: PI.

Counter-ions that a name gives are not always drawn. Like-named read-outs stand apart in the source and are kept apart here.

One may read the IC50 as the point on the concentration scale where inhibition reaches its midpoint. `C[C@@H]1CN(CC(=O)N2CC(C)(C)c3ccccc32)CCN1` [Example 21, 1-(3,3-Dimethyl-2,3-dihydro-indol-1-yl)-2-((R)-3-methyl-piperazin-1-yl)-ethanone]: the IC50 in experiment [1] (setting [3]) came out at 27000 nM. Besides, the inhibition at 160 µM in experiment [2] (1 h, @ 160 μM, read-out: IC50 or PI Xiap: PI) is 45%. In the case of `C[C@@H]1CN(CC(=O)N2CCc3ccc(C(=O)N4CCCC4)cc32)CCN1` [Example 18, 2-((R)-3-Methyl-piperazin-1-yl)-1-[6-(pyrrolidine-1-carbonyl)-2,3-dihydro-indol-1-yl]-ethanone], the inhibition at 49 µM in experiment [1] (setting [4]) was 43%; in experiment [2] (setting [5]), 47%. As to `C[C@@H]1CN(CC(=O)N2CC(C)(C)c3ncc(Cc4ccc(F)cc4)cc32)CCN1` [Example 265, 1-[6-(4-Fluoro-benzyl)-3,3-dimethyl-2,3-dihydro-pyrrolo[3,2-b]pyridin-1-yl]-2-((R)-3-methyl-piperazin-1-yl)-ethanone], the results for the IC50 in experiment [1] and in experiment [1] (setting [6]) were below 10000 nM and 41 nM, respectively. On to `C[C@@H]1CN(CC(=O)N2CCc3ccc(S(=O)(=O)N4CCCC4)cc32)CCN1` [Example 37, 2-((R)-3-Methyl-piperazin-1-yl)-1-[6-(pyrrolidine-1-sulfonyl)-2,3-dihydro-indol-1-yl]-ethanone hydrochloride salt], for which the IC50 in experiment [1] (setting [3]) worked out at 23000 nM; in experiment [2] it was 1800 nM. Consider `C[C@@H]1CN(CC(=O)N2CC(C)(C)c3ccc(C#N)cc32)CCN1` [Example 162, 3,3-Dimethyl-1-{2-[(3R)-3-methylpiperazin-1-yl]acetyl}-2,3-dihydro-1H-indole-6-carbonitrile], for which the IC50 in experiment [1] (setting [7]) turned out to be 7900 nM; in experiment [2], 5500 nM. For the compound `CC(C)c1ccc2c(c1)N(C(=O)CN1CCN[C@H](C)C1)CC2` [Example 13, 1-(6-Isopropyl-2,3-dihydro-indol-1-yl)-2-((R)-3-methyl-piperazin-1-yl)-ethanone], in experiment [1] (setting [3]), the half-maximal inhibitory concentration (IC50) came out at 63000 nM. `C[C@@H]1CN(CC(=O)N2CCc3cc(Br)c(S(=O)(=O)N(C)C)cc32)CCN1` [Example 26, 5-Bromo-1-[2-((R)-3-methyl-piperazin-1-yl)-acetyl]-2,3-dihydro-1H-indole-6-sulfonic acid dimethylamide hydrochloride salt]: the results for the 50% inhibitory concentration (IC50) in experiment [1] (setting [3]) and in experiment [2] were 27000 nM and 2400 nM, respectively. As to `COC[C@H]1CN[C@H](C)CN1CC(=O)N1CC(C)(C)c2cnc(Nc3ccccc3)cc21` [Example 81, 1-(3,3-Dimethyl-6-phenylamino-2,3-dihydro-pyrrolo[3,2-c]pyridin-1-yl)-2-((2R,5R)-2-methoxymethyl-5-methyl-piperazin-1-yl)-ethanone hydrochloride salt], the inhibition at 100 µM in experiment [1] (setting [8]) is 36%. In experiment [2] (1 h, @ 300 μM, read-out: IC50 or PI Xiap: PI), the inhibition at 300 µM came to 51%. `COC[C@H]1CN[C@H](C)CN1CC(=O)N1C[C@@](C)(COC)c2ccc(Br)cc21` [Example 169, 1-[(3S)-6-Bromo-3-(methoxymethyl)-3-methyl-2,3-dihydro-1H-indol-1-yl]-2-[(2R,5R)-2-(methoxymethyl)-5-methylpiperazin-1-yl]ethan-1-one hydrochloride]: the values for the IC50 in experiment [1] (setting [7]) and in experiment [2] were 320 nM and 920 nM, respectively.

Consider `CNS(=O)(=O)c1ccc2c(c1)N(C(=O)CN1CCN[C@H](C)C1)CC2` [Example 27, 1-[2-((R)-3-Methyl-piperazin-1-yl)-acetyl]-2,3-dihydro-1H-indole-6-sulfonic acid methylamide], for which the IC50 in experiment [1] (setting [3]) was determined as 59000 nM; in experiment [2] it was 2500 nM. For `CC(=O)N1CCC2(CC1)CN(C(=O)CN1CCN[C@H](C)C1)c1cc(Cl)ccc12` [Example 31, 1-{1′-Acetyl-6-chloro-1,2-dihydrospiro[indole-3,4′-piperidine]-1-yl}-2-[(3R)-3-methylpiperazin-1-yl]ethan-1-one hydrochloride salt], the inhibition at 49 µM turned out to be 62% in experiment [1] (setting [4]) and 51% in experiment [2] (setting [5]).

As to `C[C@@H]1CN(CC(=O)N2CCc3ccc(Nc4ccccc4)cc32)CCN1` [Example 3, 2-((R)-3-Methyl-piperazin-1-yl)-1-(6-phenylamino-2,3-dihydro-indol-1-yl)-ethanone Trifluoroacetate salt], the inhibition at 99 µM in experiment [1] (setting [8]) came to 48%. For the compound `C[C@@H]1CN(CC(=O)N2CCc3cc(F)c(-c4ccccc4)cc32)CCN1` [Example 24, 1-(5-Fluoro-6-phenyl-2,3-dihydro-indol-1-yl)-2-((R)-3-methyl-piperazin-1-yl)-ethanone hydrochloride salt], the figures for the IC50 in experiment [1], in experiment [1] (setting [3]) and in experiment [2] were below 10000 nM, 2000 nM and 7400 nM, respectively. On to `CCS(=O)(=O)c1cc2c(cc1F)C(C)(C)CN2C(=O)CN1CCN[C@H](C)C1` [Example 51, 1-(6-Ethanesulfonyl-5-fluoro-3,3-dimethyl-2,3-dihydro-indol-1-yl)-2-((R)-3-methyl-piperazin-1-yl)-ethanone dihydrochloride salt], for which the IC50 stood at 3200 nM in experiment [1] (setting [6]) and 1100 nM in experiment [2]. Take `CC1(C)CN(C(=O)CN2CCN[C@@H](CF)C2)c2cc(Cc3ccccc3)ncc21` [Example 116, 1-{6-Benzyl-3,3-dimethyl-1H,2H,3H-pyrrolo[3,2-c]pyridin-1-yl}-2-[(3R)-3-(fluoromethyl)piperazin-1-yl]ethan-1-one]: in experiment [1] (setting [7]), the IC50 was 1900 nM.

On to `CC1(C)CN(C(=O)CN2CCNC(C(F)(F)F)C2)c2cc(Cc3ccccc3)ncc21` (stereo not drawn) [Example 113, 1-{6-Benzyl-3,3-dimethyl-1H,2H,3H-pyrrolo[3,2-c]pyridin-1-yl}-2-[3-(trifluoromethyl)piperazin-1-yl]ethan-1-one], for which, in experiment [1] (setting [8]), the inhibition at 100 µM is 6%. `COC[C@H]1CN[C@H](C)CN1CC(=O)N1CC(C)(C)c2cnc(CC(C)C)cc21` [Example 72, 1-(6-Isobutyl-3,3-dimethyl-2,3-dihydro-pyrrolo[3,2-c]pyridin-1-yl)-2-((2R,5R)-2-methoxymethyl-5-methyl-piperazin-1-yl)-ethanone]: in experiment [1] (setting [7]), the IC50 was 310 nM. In the case of `COC[C@H]1CN[C@H](C)CN1CC(=O)N1C[C@@](C)(c2ccccc2)c2ccc(C#N)cc21` [Example 139, (3S)-1-{2-[(2R,5R)-2-(Methoxymethyl)-5-methylpiperazin-1-yl]acetyl}-3-methyl-3-phenyl-2,3-dihydro-1H-indole-6-carbonitrile], the IC50 in experiment [2] was 230 nM. Regarding `C[C@@H]1CN(CC(=O)N2CC(C)(C)c3ncc(C(C)(F)F)cc32)[C@@H](CN2CCCC2=O)CN1` [Example 188, 1-{[(2R,5R)-1-{2-[6-(1,1-Difluoroethyl)-3,3-dimethyl-1H,2H,3H-pyrrolo[3,2-b]pyridin-1-yl]-2-oxoethyl}-5-methylpiperazin-2-yl]methyl}pyrrolidin-2-one dihydrochloride], the IC50 in experiment [1] (setting [6]) came to 40 nM. For the compound `C[C@@H]1CN(CC(=O)N2CCc3ccc(Cl)cc32)CCN1` [Example 4, 1-(6-Chloro-2,3-dihydro-indol-1-yl)-2-((R)-3-methyl-piperazin-1-yl)-ethanone], the IC50 in experiment [1] (setting [3]) turned out to be 29000 nM.

In the case of `C[C@@H]1CN(CC(=O)N2CCc3ccc(S(C)(=O)=O)cc32)CCN1` [Example 30, 1-(6-Methane-sulfonyl-2,3-dihydro-indol-1-yl)-2-((R)-3-methyl-piperazin-1-yl)-ethanone hydrochloride salt], the inhibition at 99 µM in experiment [1] (3 h, Probe A, @ 99 μM, read-out: IC50 or PI cIAP1: PI) stood at 60%. For the compound `C[C@@H]1CN(CC(=O)N2CCc3ccc(F)cc32)CCN1` [Example 10, 1-(6-Fluoro-2,3-dihydro-indol-1-yl)-2-((R)-3-methyl-piperazin-1-yl)-ethanone], the inhibition at 160 µM in experiment [1] (3 h, Probe A, @ 160 μM, read-out: IC50 or PI cIAP1: PI) was determined as 51%.

As for `CC1(C)CN(C(=O)CN2CCNC(CF)C2)c2cc(Cc3ccccc3)ncc21` (stereo not drawn) [Example 114, 1-{6-Benzyl-3,3-dimethyl-1H,2H,3H-pyrrolo[3,2-c]pyridin-1-yl}-2-[3-(fluoromethyl)piperazin-1-yl]ethan-1-one], the IC50 in experiment [1] (setting [7]) was determined as 1500 nM. On to `COC[C@H]1CN[C@H](C)CN1CC(=O)N1CC(C)(Cc2ccccc2)c2ccc(Cl)cc21` (stereo partly drawn) [Example 107, 1-(3-Benzyl-6-chloro-3-methyl-2,3-dihydro-1H-indol-1-yl)-2-[(2R,5R)-2-(methoxymethyl)-5-methylpiperazin-1-yl]ethan-1-one, hydrochloride salt], for which the half-maximal inhibitory concentration (IC50) in experiment [1] (setting [7]) was found to be 550 nM. Turning to `COC[C@H]1CN[C@H](C)CN1CC(=O)N1CC(C)(C)c2cnc(Cc3ccc(OC)cc3)cc21` [Example 98, 2-[(2R,5R)-2-(Methoxymethyl)-5-methylpiperazin-1-yl]-1-{6-[(4-methoxyphenyl)methyl]-3,3-dimethyl-1H,2H,3H-pyrrolo[3,2-c]pyridin-1-yl}ethan-1-one, hydrochloride salt], the IC50 in experiment [1] (setting [7]) came out at 23 nM. For `C[C@@H]1CN(CC(=O)N2CCc3ccc(C(F)(F)F)cc32)CCN1` [Example 22, 2-((R)-3-Methyl-piperazin-1-yl)-1-(6-trifluoromethyl-2,3-dihydro-indol-1-yl)-ethanone], in experiment [1] (setting [3]), the IC50 was 36000 nM. On to `Cc1ccc2c(c1)N(C(=O)CN1CCN[C@H](C)C1)CC2` [Example 6, 1-(6-Methyl-2,3-dihydro-indol-1-yl)-2-((R)-3-methyl-piperazin-1-yl)-ethanone], for which the IC50 in experiment [1] (setting [3]) stood at 95000 nM. With `CC(C)[C@H]1CN[C@H](C)CN1CC(=O)N1CCc2ccc(Br)cc21` [Example 12, 1-(6-Bromo-2,3-dihydro-indol-1-yl)-2-((2S,5R)-2-isopropyl-5-methyl-piperazin-1-yl)-ethanone], the IC50 in experiment [1] was below 10000 nM.

As to `CC1(C)CN(C(=O)CN2CCN[C@H](CF)C2)c2cc(Cc3ccccc3)ncc21` [Example 115, 1-{6-Benzyl-3,3-dimethyl-1H,2H,3H-pyrrolo[3,2-c]pyridin-1-yl}-2-[(3S)-3-(fluoromethyl)piperazin-1-yl]ethan-1-one], the IC50 in experiment [1] (setting [7]) was found to be 670 nM.
